Columns and labels:
[1] = target: Adrenergic α2A (FAST-006A) receptor (Homo sapiens, UniProt P08913); experiment: α2-adrenergic activity in cells expressing recombinant receptor (Euroscreen); type: cell-based; details: agonist testing, also videos of mice at 10 mg/kg
Description: α2-adrenergic activity was measured by Euroscreen. Adrenergic α2A (FAST-006A) receptor cells grown 18 hr prior to the test in media without antibiotics were detached by gentle flushing with PBS-EDTA (5 mM EDTA), recovered by centrifugation and re-suspended in “assay buffer” (DMEM/HAM’s F12 with HEPES + 0.1% BSA protease free). Cells were incubated at RT for at least 4 hr with Coelenterazine h (Molecular Probes). Dose response curves with the reference compounds were performed before testing the compounds. For agonist testing, 50 μL of cell suspension was mixed with 50 μL of test compound or reference agonist plated in a 96-well plate. The resulting emission of light was recorded using the Hamamatsu Functional Drug Screening System 6000 (FDSS 6000). Agonist activity of test compound was expressed as a percentage of the activity of the reference agonist at its EC100 concentration.

PP1c = PP1c (Homo sapiens, UniProt P36873); experiment: SPR, compounds binding to PP1c alone immobilized on streptavidin chip; design: cDNA encoding for human PP1cγ (aa 1-322) was cloned into two baculovirus transfer vectors; made in house; host or cells: Sf9 insect cells (baculovirus); details: PP1c immobilized on SA chip
Description: (§1) Small molecules were stored as 50 mM stock solutions in 100% DMSO. […] If necessary the concentration range was adjusted to accurately determine the KD depending on the initial results. […] This was followed by 1 min stabilization period, to wash off any unspecific binding. […] After each dilution series, the surface was regenerated using 3 M NaCl for 90 s. […] In order to be able to correct for small variations in DMSO concentration between samples, eight solvent samples ranging from 0.06 to 8% DMSO were injected every 50th cycle. The flow cell temperature was 20°C.

[2] = target: T1, R15A-PP1c holophosphatase (R15A^325-636-PP1c) (Homo sapiens, UniProt O75807); experiment: Holophosphatase SPR, compounds binding to reconstituted R15A-PP1c; details: holophosphatase reconstituted on SA chip; 20°C; mean ± SD; read-out: KD, steady-state affinity for R15A-PP1c
T1 construct: cDNAs encoding amino acids 325-636 of R15A and 340-698 of R15B were cloned into pMAL-c5x; made in house; host or cells: R15A: E. coli BL21-Gold (DE3) pLysS; bio-PP1c: Sf9 insect cells (baculovirus)
Description: as §1

HeLa cells = experiment: Monitoring cell viability (CellTox Green, IncuCyte); type: cell-based
Description: HeLa cells (40,000 cells/mL) were plated in 96-well plates (0.1 mL/well). The following day the cells were treated with different concentrations of Raphin1, in triplicate, as indicated and incubated at 37°C for 48 hr. To monitor cell death 1:2,000 dilution of the CellTox Green Dye (Promega) was added to the medium. The growth of the cells was monitored over time and pictures taken every 2 hr (two per well) with the IncuCyte ZOOM system (Essen BioScience). The default software parameters for a 96-well plate (Corning) with a 10x objective were used for imaging and the images were analyzed by the IncuCyte ZOOM software (Essen BioScience). The software was used to calculate the confluency from the two non-overlapping images of each well at each time point. The phase confluency refers to the percentage of the image area that is occupied by cells. The green confluency refers to the percentage of the image area that fluoresces green. The CellTox Green Dye (Promega) preferentially stains dead cells’ DNA, but is excluded from viable cells. To assess the effect of Raphin1 on cell viability, the percentage of dead cells was calculated as follows: %ofdeadcells=Greenconfluency(%)atXhours/Phaseconfluency(%)atXhours×100

R15A = R15A (Homo sapiens, UniProt O75807); experiment: R15A levels on immunoblots of HeLa cell lysates; type: cell-based; design: endogenous in cells; host or cells: HeLa; details: HeLa cells, Raphin1 10 μM
Description: HeLa or MEF cells (90,000 cells/mL) were plated in 12-well plates (1 mL/well). The following day cells were treated as indicated; the medium was removed, fresh medium containing compound added and incubated at 37°C for the times indicated. The time course was performed in reverse order to facilitate collecting all samples at the same time. At the end of treatment cells were washed two times with ice-cold PBS and lysed in 150 μL Laemmli Buffer. Lysates were transferred to 1.5 mL eppendorf tubes, boiled at 95°C for 5 min, sonicated and resolved on Bolt SDS-PAGE 4%–12% Bis-Tris gels (ThermoFisher Scientific). Proteins were transferred to the nitrocellulose membrane using the iBlot 2 system (ThermoFisher Scientific). Membrane was blocked in 5% skimmed milk for 30 min and then probed with primary antibodies followed by incubation with the appropriate horseradish peroxidase-conjugated secondary antibodies (Promega). Proteins were visualized using ECL Prime (GE Healthcare) and imaged in the Chemi-Smart 5000 (Vilber-Lourmat, France) or ChemiDoc Touch (BioRad). Bands were quantified using ImageJ (NIH, USA). […]

Chain of R15A (O75807 whole entry, stated change not applied): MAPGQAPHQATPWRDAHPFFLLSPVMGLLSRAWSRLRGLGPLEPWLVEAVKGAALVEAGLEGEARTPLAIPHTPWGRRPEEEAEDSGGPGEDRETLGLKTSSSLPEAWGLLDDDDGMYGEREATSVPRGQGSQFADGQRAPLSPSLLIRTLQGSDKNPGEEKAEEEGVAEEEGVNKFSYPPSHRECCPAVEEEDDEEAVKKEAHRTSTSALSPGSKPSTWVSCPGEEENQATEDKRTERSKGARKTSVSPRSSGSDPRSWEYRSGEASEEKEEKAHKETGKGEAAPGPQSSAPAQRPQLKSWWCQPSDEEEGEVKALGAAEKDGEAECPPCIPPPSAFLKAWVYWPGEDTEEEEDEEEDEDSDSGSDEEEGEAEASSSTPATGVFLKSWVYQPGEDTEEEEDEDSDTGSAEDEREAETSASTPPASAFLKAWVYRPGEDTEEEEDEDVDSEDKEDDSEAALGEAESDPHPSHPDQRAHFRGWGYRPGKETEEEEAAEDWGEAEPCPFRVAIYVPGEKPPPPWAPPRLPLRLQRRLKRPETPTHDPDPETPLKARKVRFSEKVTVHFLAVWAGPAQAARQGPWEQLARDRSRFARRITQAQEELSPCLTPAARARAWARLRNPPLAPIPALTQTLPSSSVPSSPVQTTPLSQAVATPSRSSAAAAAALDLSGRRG
Chain of PP1c (P36873 1-322): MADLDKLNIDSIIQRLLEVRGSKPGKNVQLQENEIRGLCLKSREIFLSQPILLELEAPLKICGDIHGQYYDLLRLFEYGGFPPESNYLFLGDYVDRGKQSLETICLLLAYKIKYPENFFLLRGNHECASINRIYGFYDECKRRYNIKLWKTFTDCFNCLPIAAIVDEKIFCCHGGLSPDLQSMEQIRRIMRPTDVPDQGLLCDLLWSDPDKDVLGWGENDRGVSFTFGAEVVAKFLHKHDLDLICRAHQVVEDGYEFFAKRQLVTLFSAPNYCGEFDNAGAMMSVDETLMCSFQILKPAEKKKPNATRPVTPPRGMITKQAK
T1 sequence (O75807 325-636, stated change not applied): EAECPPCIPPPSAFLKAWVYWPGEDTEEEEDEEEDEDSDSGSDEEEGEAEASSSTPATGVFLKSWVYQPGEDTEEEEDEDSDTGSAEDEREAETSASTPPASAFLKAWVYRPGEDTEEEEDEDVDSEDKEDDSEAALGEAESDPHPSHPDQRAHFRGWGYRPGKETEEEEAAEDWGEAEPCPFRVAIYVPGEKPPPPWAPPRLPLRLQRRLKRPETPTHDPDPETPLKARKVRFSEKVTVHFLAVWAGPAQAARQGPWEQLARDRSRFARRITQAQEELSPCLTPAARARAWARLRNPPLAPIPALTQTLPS
T1 sequence (P36873 1-322 partner): as the sequence (P36873 1-322) above
Chain of Adrenergic α2A (FAST-006A) receptor (P08913 whole entry): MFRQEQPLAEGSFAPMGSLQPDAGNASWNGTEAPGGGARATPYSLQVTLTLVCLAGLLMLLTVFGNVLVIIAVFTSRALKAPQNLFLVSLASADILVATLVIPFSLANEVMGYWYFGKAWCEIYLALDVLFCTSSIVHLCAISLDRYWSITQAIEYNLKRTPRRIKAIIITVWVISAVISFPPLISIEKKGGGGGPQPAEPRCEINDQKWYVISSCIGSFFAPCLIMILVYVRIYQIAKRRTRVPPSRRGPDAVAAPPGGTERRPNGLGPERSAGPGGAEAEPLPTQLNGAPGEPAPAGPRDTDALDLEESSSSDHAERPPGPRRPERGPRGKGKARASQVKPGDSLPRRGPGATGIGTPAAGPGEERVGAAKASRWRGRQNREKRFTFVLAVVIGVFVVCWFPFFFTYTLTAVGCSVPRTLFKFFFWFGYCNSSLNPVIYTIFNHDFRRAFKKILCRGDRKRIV

[H]/N=C(\N)NN=Cc1cccc(Cl)c1Cl [Raphin1, (E)-2-(2,3-dichlorobenzylidene)hydrazine-1-carboximidamide]
α2-adrenergic activity [1]: lacked | Binding to PP1c alone (in words) (PP1c): did not bind | Kd [2]: 0.977 µM | Toxicity to cells (% of dead cells) (HeLa cells; 20 μM): toxic | Toxicity to cells (% of dead cells) (HeLa cells; concentration corresponding to brain level after 2 mg/kg (∼1.5 μM), continuously applied for 48 hr): not toxic | R15A levels (decrease) (R15A): not observed
